Results published in patent US6426435B1, “Substantive water-soluble bis-quaternary salts of cinnamidoalkylamines” (Galaxy Surfactants Ltd., priority 2000, dated 2002).
Read-outs that look alike come from different tables or passages of the source.

Experiments:
[1] = UV absorption: molar extinction coefficient; assay type: physicochemical
Method: Ethyl p-methoxy cinnamate (206.0 g, 1.0 mole), […] (306.0 g, 3.0 mole) and sodium methoxide (2.0 g) were charged in a pressure reactor. The air inside the reactor was flushed out by purging of nitrogen. The reaction mixture was then stirred at 180° C. (this generated pressure of 18 kg/cm^2) for 36 hours. The progress of reaction was monitored by disappearance of ethyl p-methoxy cinnamate on chromatography (TLC and HPLC). The TLC was performed on aluminium coated silica gel plates (Merck-60-F-254) and viewed with a UV lamp at 254 nm. HPLC was performed using reversed phase technique on a C-18 bonded (octadecyl silane) column and 60% aqueous methanol as mobile phase (1.0 ml/min) and detection at 280 nm. The excess amine was removed under vacuum.

[2] = Method: The major ingredients were mixed with heating to 50° C. until a uniform homogenous mixture was formed. The resulting mixture was then cooled to room temperature with continuous stirring. The required chelating agent, colour, perfume were added. The viscosity was adjusted to 2500 cps with sodium chloride.
The substantivity experiment was performed as described under;
All ingredients were heated together under stirring to 70° C. till the reaction mass became homogenous and transparent. The reaction mass was cooled to 40° C. and the required amounts of chelating agents, perfume and colour were added. The molten mass was cast in moulds of desired shape to yield transparent bathing bar.

[3] = remark: listed apart in the source
Method: Virgin hair (5.0 g) were washed with 10% SLES solution and rinsed with plain water. The tresses were treated for exactly 5.0 minutes with clear shampoo (containing 2% β,β′-di (p-methoxy cinnamidopropyldimethylammonium chloride) ethyl ether) as described in Example I that was diluted five times with water. After the treatment the tresses were washed thoroughly with copious amount of water. The adsorbed quaternary was extracted from the hair surface by immersing each tress in isopropanol at 65° C. for 30 minutes. A known volume of this isopropanol/quaternary ammonium salt mixture was analysed by UV-spectroscopy to determine its absorption intensity.

[4] = solid after removal of water

molar extinction coefficient, ε ([1]; in methanol, at 290 nm, in M-1·cm-1 (unit assumed)) | SMILES | compatibility with anionic surfactant ([2]; transparent bathing bar of Example V, transparency unaffected) | compatibility with anionic surfactant ([2]; transparent shampoo of Example III (SLES-2)) | molar extinction coefficient, ε [1] | molar extinction coefficient, ε ([1]; in aqueous solution at 292 nm λmax) | substantivity ([3]; clear shampoo of Example III containing 2% compound, diluted five times with water, 5.0 minutes treatment) | deposition of quaternary on cotton fabric (substantivity) ([3]; detergent powder of Example VII (2.0% compound)) | substantivity ([3]; transparent bathing bar of Example V (2.0% compound), procedure of Example III) | water solubility [4] [%]
24,224 | COc1ccc(C=CC(=O)NCCCN(C)C)cc1 [p-Methoxy Cinnamidopropyldimethylamine] |  |  |  |  |  |  |  | 
 | COc1ccc(C=CC(=O)NCCC[N+](C)(C)CCOCC[N+](C)(C)CCCNC(=O)C=Cc2ccc(OC)cc2)cc1.[Cl-].[Cl-] [β,β′-di(p-Methoxy Cinnamidopropyldimethylammonium Chloride) Ethyl Ether] | total compatibility | completely compatible | 42,000 | 42,729 | 22 mg/100 g of hair | 21 mg/100 g of cotton fabric | 20 mg /100 g of hair | > 50
